# Results from PubChem BioAssay (NCI).
# Where “and” joins values, the source holds several entries; their conditions need not be identical. Equal entries are not always repeated.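 Cultured in 96-well plates, cells were exposed to test compound for 48 hours across five concentrations. GI50 marks 50% less growth. TGI: total growth inhibition.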
# Tests used:
# Assay in all cases: inhibition of tumour cell growth, NCI panel, 48 h
# HOP-92 NSCLC = system: HOP-92 NSCLC
# NCI/ADR-RES ovarian = system: NCI/ADR-RES ovarian
# NCI-H23 lung = system: NCI-H23 lung
# HCC-2998 colon = system: HCC-2998 colon
# SNB-75 CNS = system: SNB-75 CNS
# M14 melanoma = system: M14 melanoma
# RPMI-8226 leukemia = system: RPMI-8226 leukemia
# UACC-62 melanoma = system: UACC-62 melanoma
# UO-31 renal = system: UO-31 renal
# MDA-MB-231 breast = system: MDA-MB-231 breast
SMILES,GI50 (HOP-92 NSCLC),TGI (HOP-92 NSCLC),GI50 (NCI/ADR-RES ovarian),TGI (NCI/ADR-RES ovarian),GI50 (NCI-H23 lung),TGI (NCI-H23 lung),GI50 (HCC-2998 colon),TGI (HCC-2998 colon),GI50 (SNB-75 CNS),TGI (SNB-75 CNS),GI50 (M14 melanoma),TGI (M14 melanoma),GI50 (RPMI-8226 leukemia),TGI (RPMI-8226 leukemia),GI50 (UACC-62 melanoma),TGI (UACC-62 melanoma),GI50 (UO-31 renal),TGI (UO-31 renal),GI50 (MDA-MB-231 breast),TGI (MDA-MB-231 breast)
O=c1cc(-c2ccccc2)[nH]n1-c1nc2ccccc2[nH]1,4.25 µM,47.7 µM,3.68 µM,> 100 µM,9.69 µM,> 100 µM,23.1 µM,> 100 µM,4.66 µM,> 100 µM,2.71 µM,> 100 µM,3.59 µM,52.4 µM,3.1 µM,13.8 µM,5.68 µM,67.6 µM,6.92 µM,93.6 µM
Cc1cc(Nc2ncnc3ccc(NC4=NC(C)(C)CO4)cc23)ccc1Oc1ccn2ncnc2c1,3.69 µM and 4.24 µM,26.9 µM and > 10 µM,17.1 µM and > 10 µM,89.2 µM and > 10 µM,17 µM and > 10 µM,41.7 µM and > 10 µM,16.5 µM and > 10 µM,30.9 µM and > 10 µM,15.6 µM and > 10 µM,51.9 µM and > 10 µM,14.6 µM and > 10 µM,33.1 µM and > 10 µM,9.87 µM and 6.82 µM,33.5 µM and > 10 µM,12.5 µM and > 10 µM,30.3 µM and > 10 µM,6.29 µM and > 10 µM,84.4 µM and > 10 µM,14.1 µM and > 10 µM,44.9 µM and > 10 µM
C=CC(=O)N[C@H]1CCOC[C@H]1Nc1ncc2cc(-c3c(Cl)c(OC)cc(OC)c3Cl)ccc2n1,5.38 µM,51.3 µM,20.7 µM,> 100 µM,22 µM,> 100 µM,32.7 µM,> 100 µM,12 µM,> 100 µM,11.8 µM,40.2 µM,9.04 µM,61.5 µM,10.7 µM,30.6 µM,4.28 µM,> 100 µM,17.7 µM,> 100 µM
